Where two headings read alike, the source gives them in different places.
Columns and labels:
in vitro [1] = assay: in vitro; set-up: species or system HB2, CCD841; details: human, hek293 cells
in vitro [2] = assay: in vitro; set-up: species or system CCD841, HEK293; details: human, hb2 cells, read-out: HB-2 Cells Viability (%)
NUDT7 = target: T1, NUDT7 (Homo sapiens, UniProt P0C024); set-up: Intact protein LC/MS covalent labelling, fragments in pools of five, 200 uM each, 4 °C; details: 24 h, 4 °C, pool of five; 200 µM; covalent
T1 construct: residues 14-235, E. coli, pNIC28-Bsa4, N-terminal His6 tag removed by TEV, construct 26672 Da

PCAF = target: T2, PCAF (Homo sapiens, UniProt Q92831); set-up: Intact protein LC/MS covalent labelling, fragments in pools of five, 200 uM each, 4 °C; details: 24 h, 4 °C, pool of five; 200 µM; covalent
T2 construct: gene KAT2B

BSA = target: T3, BSA (Bos taurus, UniProt P02769); set-up: Intact protein LC/MS covalent labelling, fragments in pools of five, 200 uM each, 4 °C; details: 24 h, 4 °C, pool of five; 200 µM; covalent
T3 construct: gene ALB

OTUB2 (OTUB2A) = target: T4, OTUB2 (OTUB2A) (Homo sapiens, UniProt Q96DC9); set-up: Intact protein LC/MS covalent labelling, fragments in pools of five, 200 uM each, 4 °C; details: 24 h, 4 °C, pool of five; 200 µM; covalent
T4 construct: full length residues 1-234, E. coli BL21(DE3)-R3, His tag removed by TEV, construct 27312 Da
T4 sequence (Q96DC9 1-234): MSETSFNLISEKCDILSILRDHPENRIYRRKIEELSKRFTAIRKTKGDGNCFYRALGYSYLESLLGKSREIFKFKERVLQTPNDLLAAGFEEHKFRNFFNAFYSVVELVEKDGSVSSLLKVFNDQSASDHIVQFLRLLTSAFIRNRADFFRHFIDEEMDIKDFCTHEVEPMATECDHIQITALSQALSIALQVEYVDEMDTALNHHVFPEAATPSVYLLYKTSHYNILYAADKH

in vitro [3] = assay: in vitro; set-up: species or system HB2, HEK293; details: human, ccd841 cells

T3 sequence (P02769 whole entry, the tested form may be a part): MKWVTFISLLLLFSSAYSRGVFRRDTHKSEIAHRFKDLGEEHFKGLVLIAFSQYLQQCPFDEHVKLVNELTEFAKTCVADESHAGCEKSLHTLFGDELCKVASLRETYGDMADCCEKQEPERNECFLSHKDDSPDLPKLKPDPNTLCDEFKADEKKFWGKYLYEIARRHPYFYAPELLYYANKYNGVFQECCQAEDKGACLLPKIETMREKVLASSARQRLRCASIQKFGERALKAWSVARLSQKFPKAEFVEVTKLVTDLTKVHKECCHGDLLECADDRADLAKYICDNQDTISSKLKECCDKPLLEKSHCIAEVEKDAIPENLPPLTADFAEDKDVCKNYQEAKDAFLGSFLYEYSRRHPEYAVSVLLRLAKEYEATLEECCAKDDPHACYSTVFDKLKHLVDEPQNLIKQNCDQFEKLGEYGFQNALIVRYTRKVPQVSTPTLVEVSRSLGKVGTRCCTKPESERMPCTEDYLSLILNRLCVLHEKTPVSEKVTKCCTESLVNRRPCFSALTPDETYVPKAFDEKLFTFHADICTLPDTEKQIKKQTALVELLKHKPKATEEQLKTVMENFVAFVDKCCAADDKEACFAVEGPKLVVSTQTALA
T2 sequence (Q92831 whole entry, the tested form may be a part): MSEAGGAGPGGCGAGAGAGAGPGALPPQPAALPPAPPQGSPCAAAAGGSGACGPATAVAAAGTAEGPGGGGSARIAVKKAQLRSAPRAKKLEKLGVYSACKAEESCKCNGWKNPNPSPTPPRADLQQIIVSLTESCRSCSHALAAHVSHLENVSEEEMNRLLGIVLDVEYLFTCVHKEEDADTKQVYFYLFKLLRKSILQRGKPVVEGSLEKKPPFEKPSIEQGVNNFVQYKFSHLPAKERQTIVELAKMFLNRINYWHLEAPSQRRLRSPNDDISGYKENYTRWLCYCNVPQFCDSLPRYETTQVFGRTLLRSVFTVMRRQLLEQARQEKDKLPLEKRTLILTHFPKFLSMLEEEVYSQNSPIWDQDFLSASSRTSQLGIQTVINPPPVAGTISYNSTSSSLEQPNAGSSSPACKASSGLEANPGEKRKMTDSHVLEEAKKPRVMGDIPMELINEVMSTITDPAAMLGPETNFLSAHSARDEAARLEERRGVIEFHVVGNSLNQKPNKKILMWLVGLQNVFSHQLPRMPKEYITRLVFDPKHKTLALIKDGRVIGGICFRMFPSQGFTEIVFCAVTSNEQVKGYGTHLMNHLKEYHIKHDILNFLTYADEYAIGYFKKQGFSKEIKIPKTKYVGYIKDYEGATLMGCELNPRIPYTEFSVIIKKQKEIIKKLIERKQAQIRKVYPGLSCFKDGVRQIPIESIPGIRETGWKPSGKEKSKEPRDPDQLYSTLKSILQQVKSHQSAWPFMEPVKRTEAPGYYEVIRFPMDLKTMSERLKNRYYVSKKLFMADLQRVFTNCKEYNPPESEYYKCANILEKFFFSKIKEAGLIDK
T1 sequence (P0C024 14-235): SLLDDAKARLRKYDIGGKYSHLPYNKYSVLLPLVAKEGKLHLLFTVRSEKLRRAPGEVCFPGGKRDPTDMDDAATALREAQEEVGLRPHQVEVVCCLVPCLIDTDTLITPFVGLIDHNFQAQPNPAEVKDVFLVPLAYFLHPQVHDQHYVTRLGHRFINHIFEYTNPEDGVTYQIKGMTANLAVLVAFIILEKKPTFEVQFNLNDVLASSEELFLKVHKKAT

SMILES	viability at 48 h, 10 µM (in vitro [1]) [%]	viability at 48 h, 10 µM (in vitro [2]) [%]	NUDT7 (NUDT7)	PCAF (PCAF)	BSA (BSA)	OTUB2 (OTUB2 (OTUB2A))	viability at 48 h, 10 µM (in vitro [3]) [%]
O=C(CCl)N1N=C(c2ccco2)CC1c1ccco1 (centres unmarked) [PCM-0102380]	40.4	55.7	0.54	0	0	0	63.4
N#CC(c1ccccc1)N1CCN(C(=O)CCl)CC1 (centres unmarked) [PCM-0102381]	31.9	46.7	0.11	0	0	0	66.2
O=C(CCl)NNC(=O)C1COc2ccccc2O1 (centres unmarked) [PCM-0102384]	90.7	86.6	0	0	0	0.27	70.3
C=CC(=O)Nc1ccc(F)c(F)c1 [PCM-0102385]	66.1	104	0	0	0	0	112
Cl.O=C(CCl)N1CCN(Cc2ccccc2F)CC1 [PCM-0102387]	35.1	24	0	0	0	0.32	67.2
O=C(CCl)Nc1cc2[nH]c(=O)[nH]c2cc1Br [PCM-0102388]	1.2	11.4	0	0	0	0.56	38.6
O=C(CCl)NCC(=O)N1CCCC1 [PCM-0102391]	116	106	0	0	0	0	101
O=C(CCl)Nc1ccc([N+](=O)[O-])cc1Cl [PCM-0102392]	43.8	43.5	0.16	0	0	0.21	53.9
O=C(CCl)N1CCCC1c1cccs1 (centres unmarked) [PCM-0102393]	2.5	7.5	0.36	0	0	0	39
Cc1cc(C)cc(NC(=O)CCl)c1 [PCM-0102394]	22.3	31.4	0	0	0	0.22	69.9
N#Cc1ccccc1S(=O)(=O)N1CCN(C(=O)CCl)CC1 [PCM-0102395]	9.7	11.2	0.28	0	0	0	62.6
O=C(CCl)Nc1cccc2ccccc12 [PCM-0102396]	2.4	16.3	0.12	0	0	0.54	55.8
Cc1ccc(C)c(NC(=O)CCl)c1 [PCM-0102398]	51.5	59.4	0	0	0	0	62.3
Cc1ccc(CN(C)C(=O)CCl)o1 [PCM-0102399]	31.8	25.7	0.05	0	0	0	56.5
CC(NC(=O)CCl)C12CC3CC(CC(C3)C1)C2 (centres unmarked) [PCM-0102402]	55.2	67.3	0.07	0	0	0.24	73.3
Cl.O=C(CCl)N1CCN(C2CCS(=O)(=O)C2)CC1 (centres unmarked) [PCM-0102405]	90.2	107	0	0	0	0	87.8

SMILES	viability at 48 h, 10 µM (in vitro [1]) [%]	viability at 48 h, 10 µM (in vitro [2]) [%]	NUDT7 (NUDT7)	PCAF (PCAF)	BSA (BSA)	OTUB2 (OTUB2 (OTUB2A))	viability at 48 h, 10 µM (in vitro [3]) [%]
O=C(CCl)Nc1ccc([N+](=O)[O-])cc1C(F)(F)F [PCM-0102406]	71.9	81.5	0	0	0	0	83.1
O=C(CCl)Nc1ccc2c(c1)OCCCO2 [PCM-0102409]	6.9	29.6	0.1	0	0	0.23	51.7
COc1cccc(NC(=O)CCl)c1 [PCM-0102410]	7.5	34.1	0	0	0.21	0	63.5
O=C(CCl)NC(=O)NC1CC1 [PCM-0102411]	109	96.7	0	0	0	0	84.9
O=C(CCl)Nc1cc(Cl)ccc1C(=O)O [PCM-0102412]	89.4	99.3	0.16	0	0	0.07	100
C=CC(=O)Nc1cccc(F)c1C [PCM-0102413]	86.8	100	0	0	0	0	86
O=C(CCl)N1CCSc2ccccc21 [PCM-0102415]	22.4	30.2	0.1	0	0	0.16	60.6
CS(=O)(=O)N1CCN(C(=O)CCl)CC1 [PCM-0102417]	70.1	89.4	0	0	0	0	78.8
C=CC(=O)N1CCN(C(=O)OC(C)(C)C)CC1 [PCM-0102419]	90.3	100	0.16	0	0	0	104
CC1CCc2c(sc(NC(=O)CCl)c2C#N)C1 (centres unmarked) [PCM-0102420]	43.4	50.9	0.47	0	0	0	81.6
O=C(CCl)NC(=O)c1ccccc1Cl [PCM-0102422]	93	99.7	0	0	0	0	110
C=CC(=O)N1CCC(n2cc(C)cn2)CC1 [PCM-0102423]	92.5	104	0	0	0	0.09	108
O=C(CCl)N1CCCC(c2nc3ccccc3s2)C1 (centres unmarked) [PCM-0102425]	9.4	4.1	0.28	0	0	0	3.5
O=C(CCl)NNC(=O)c1cccs1 [PCM-0102426]	82.8	86	0	0	0	0.6	88.7
CC1(c2ccccc2)NC(=O)N(NC(=O)CCl)C1=O (centres unmarked) [PCM-0102428]	103	91.2	0	0	0	0	81.4
O=C(CCl)NNC(=O)c1ccc(F)cc1 [PCM-0102430]	93.4	94.9	0	0	0	0.31	93.2

— paper PMC6556873, “Rapid Covalent-Probe Discovery by Electrophile-Fragment Screening” (Journal of the American Chemical Society, 2019)
